# Where a name gives a salt, the structure may show the parent alone.
# Target: p45MEK (GST-MEK) (Homo sapiens, UniProt Q02750)
# Assay: Cascade assay for inhibitors of the MAP kinase pathway (in vitro)
# Format: biochemical
# Experimental: Incorporation of ^32P into myelin basic protein (MBP) was assayed in the presence of a glutathione S-transferase fusion protein containing p44MAP kinase (GST-MAPK) and a glutathione S-transferase fusion protein containing p45MEK (GST-MEK). The assay solution contained 20 mM HEPES, pH 7.4, 10 mM MgCl2, 1 mM MnCl2, 1 mM EGTA, 50 μM [γ-^32P]ATP, 10 μg GST-MEK, 0.5 μg GST-MAPK and 40 μg MBP in a final volume of 100 μL. […] Compounds were assessed at 10 μM for ability to inhibit incorporation of ^32P.
# To ascertain whether compounds were inhibiting GST-MEK or GST MAPK, two additional protocols were employed. In the first protocol, compounds were added to tubes containing GST-MEK, followed by addition of GST-MAPK, MBP and [γ-^32P]ATP. In the second protocol, compounds were added to tubes containing both GST-MEK and GST-MAPK, followed by MBP and [γ-^32P]ATP.
# p45MEK (GST-MEK), sequence (Q02750 whole entry): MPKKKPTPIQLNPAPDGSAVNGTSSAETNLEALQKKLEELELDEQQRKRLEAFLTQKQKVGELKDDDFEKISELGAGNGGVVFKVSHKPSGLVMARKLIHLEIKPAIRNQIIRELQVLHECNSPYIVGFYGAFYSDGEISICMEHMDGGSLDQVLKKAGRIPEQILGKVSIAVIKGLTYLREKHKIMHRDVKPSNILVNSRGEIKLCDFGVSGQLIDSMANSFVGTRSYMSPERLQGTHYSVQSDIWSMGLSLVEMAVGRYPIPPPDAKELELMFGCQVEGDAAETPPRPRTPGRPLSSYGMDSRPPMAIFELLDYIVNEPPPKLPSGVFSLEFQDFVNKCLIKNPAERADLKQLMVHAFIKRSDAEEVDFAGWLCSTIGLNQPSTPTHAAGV
row,IC50,SMILES
1,0.085 µM,"Cc1cc(I)ccc1Nc1c(C(=O)NOC(C)C)cc(Br)c(F)c1F [Example 49, 5-Bromo-3,4-difluoro-2-(4-iodo-2-methyl-phenylamino)-N-isopropoxy-benzamide]"
2,0.043 µM,"Cc1cc(I)ccc1Nc1c(C(=O)NOC2CCC2)ccc(F)c1F [Example 50, N-Cyclobutyloxy-3,4-difluoro-2-(4-iodo-2-methyl-phenylamino)-benzamide]"
3,0.14 µM,"Cc1cc(I)ccc1Nc1c(C(=O)NOC2CCCC2)ccc(F)c1F [Example 53, N-Cyclopentyloxy-3,4-difluoro-2-(4-iodo-2-methyl-phenylamino)-benzamide]"
4,0.014 µM,"Cc1cc(I)ccc1Nc1c(C(=O)NOCC2CC2)ccc(F)c1F [Example 56, N-Cyclopropylmethoxy-3,4-difluoro-2-(4-iodo-2-methyl-phenylamino)-benzamide]"
5,0.086 µM,"Cc1cc(I)ccc1Nc1cc(F)ccc1C(=O)NOCc1cccs1 [Example 62, 4-Fluoro-2-(4-iodo-2-methyl-phenylamino)-N-(thiophen-2-ylmethoxy)-benzamide]"
6,0.019 µM,"Cc1cc(I)ccc1Nc1c(C(=O)NOCc2cccs2)ccc(F)c1F [Example 63, 3,4-Difluoro-2-(4-iodo-2-methyl-phenylamino)-N-(thiophen-2-ylmethoxy)-benzamide]"
7,0.279 µM,"Cc1cc(Br)ccc1Nc1c(C(=O)NOCc2cccs2)ccc(F)c1F [Example 64, 2-(4-Bromo-2-methyl-phenylamino)-3,4-difluoro-N-(thiophen-2-ylmethoxy)-benzamide]"
8,0.016 µM,"C=C(C)CONC(=O)c1ccc(F)c(F)c1Nc1ccc(I)cc1C [Example 66, 3,4-Difluoro-2-(4-iodo-2-methyl-phenylamino)-N-(2-methyl-allyloxy)-benzamide]"
9,0.119 µM,"CC=CCONC(=O)c1ccc(F)cc1Nc1ccc(I)cc1C [Example 68, N-(But-2-enyloxy)-4-fluoro-2-(4-iodo-2-methyl-phenylamino)-benzamide]"
10,0.035 µM,"CC=CCONC(=O)c1ccc(F)c(F)c1Nc1ccc(I)cc1C [Example 74, N-(But-2-enyloxy)-3,4-difluoro-2-(4-iodo-2-methyl-phenylamino)-benzamide]"
11,0.008 µM,"Cc1cc(I)ccc1Nc1c(C(=O)NOCC2CC2)cc(F)c(F)c1F [Example 79, N-Cyclopropylmethoxy-3,4,5-trifluoro-2-(4-iodo-2-methyl-phenylamino)-benzamide]"
12,0.08 µM,"Cc1cc(I)ccc1Nc1cc(F)ccc1C(=O)N(C)O [Example 80, 4-Fluoro-N-hydroxy-2-(4-iodo-2-methyl-phenylamino)-N-methyl-benzamide]"
13,0.017 µM,"Cc1cc(I)ccc1Nc1cc(F)c([N+](=O)[O-])cc1C(=O)NO [Example 81, 4-Fluoro-N-hydroxy-2-(4-iodo-2-methyl-phenylamino)-5-nitro-benzamide]"
14,0.031 µM,"Cc1cc(I)ccc1Nc1c(C(=O)NOC2CCCCO2)ccc(F)c1F (stereo not shown) [Example 83, 3,4-Difluoro-2-(4-iodo-2-methyl-phenylamino)-N-(tetrahydro-pyran-2-yloxy)-benzamide]"
15,0.024 µM,"Cc1cc(I)ccc1Nc1c(C(=O)NOCCN2CCCCC2)cc(Br)c(F)c1F [Example 85, 3,4-Difluoro-5-bromo-2-(4-iodo-2-methyl-phenylamino)-N-(2-piperidin-1-yl-ethoxy)-benzamide]"
16,0.033 µM,"Cc1cc(I)ccc1Nc1c(C(=O)NOCC(C)N(C)C)cc(Br)c(F)c1F (stereo not shown) [Example 92, 5-Bromo-N-(2-dimethylamino-propoxy)-3,4-difluoro-2-(4-iodo-2-methyl-phenylamino)-benzamide]"
17,0.038 µM,"O=C(NOC1CCCCO1)c1cc(Br)c(F)c(F)c1Nc1ccc(I)cc1Cl (stereo not shown) [Example 94, 5-Bromo-2-(2-chloro-4-iodo-phenylamino)-3,4-difluoro-N-(tetrahydro-pyran-2-yloxy)-benzamide]"
18,< 0.01 µM,"O=C(NOCC1CC1)c1cc(Br)c(F)c(F)c1Nc1ccc(I)cc1Cl [Example 96, 5-Bromo-2-(2-chloro-4-iodo-phenylamino)-N-cyclopropylmethoxy-3,4-difluoro-benzamide]"
19,0.015 µM,"Cc1cc(I)ccc1Nc1c(C(=O)NOCCN2CCOCC2)cc(Br)c(F)c1F [Example 97, 5-Bromo-3,4-difluoro-2-(4-iodo-2-methyl-phenylamino)-N-(2-morpholin-4-yl-ethoxy)-benzamide]"

# Continued, compound first:
row,SMILES,IC50
1,"Cc1cc(I)ccc1Nc1c(C(=O)NOC(C)C)ccc(F)c1F [Example 47, 3,4-Difluoro-2-(4-iodo-2-methyl-phenylamino)-N-isopropoxy-benzamide]",0.087 µM
2,"Cc1cc(I)ccc1Nc1cc(F)ccc1C(=O)NOCC1CC1 [Example 55, N-Cyclopropylmethoxy-4-fluoro-2-(4-iodo-2-methyl-phenylamino)-benzamide]",0.047 µM
3,"Cc1cc(Br)ccc1Nc1c(C(=O)NOCC2CC2)ccc(F)c1F [Example 57, 2-(4-Bromo-2-methyl-phenylamino)-N-cyclopropylmethoxy-3,4-difluoro-benzamide]",0.181 µM
4,"Cc1cc(I)ccc1Nc1cc(F)ccc1C(=O)NOCCOc1ccccc1 [Example 59, 4-Fluoro-2-(4-iodo-2-methyl-phenylamino)-N-(2-phenoxy-ethoxy)-benzamide]",0.259 µM
5,"C=C(C)CONC(=O)c1ccc(F)cc1Nc1ccc(I)cc1C [Example 65, 4-Fluoro-2-(4-iodo-2-methyl-phenylamino)-N-(2-methyl-allyloxy)-benzamide]",0.057 µM
6,"CC=CCONC(=O)c1ccc(F)c(F)c1Nc1ccc(I)cc1C [Example 69, N-(But-2-enyloxy)-3,4-difluoro-2-(4-iodo-2-methyl-phenylamino)-benzamide]",0.016 µM
7,"CC=CCONC(=O)c1ccc(F)c(F)c1Nc1ccc(Br)cc1C [Example 70, 2-(4-Bromo-2-methyl-phenylamino)-N-(but-2-enyloxy)-3,4-difluoro-benzamide]",0.224 µM
8,"C#CCONC(=O)c1ccc(F)c(F)c1Nc1ccc(I)cc1C [Example 71, 3,4-Difluoro-2-(4-iodo-2-methyl-phenylamino)-N-(prop-2-ynyloxy)-benzamide]",0.015 µM
9,"Cc1cc(I)ccc1Nc1cc(F)ccc1C(=O)N(O)C(C)C [Example 78, 4-Fluoro-N-hydroxy-2-(4-iodo-2-methyl-phenylamino)-N-isopropyl-benzamide]",0.08 µM
10,"Cc1cc(I)ccc1Nc1c(C(=O)NOC2CCCCO2)cc(Br)c(F)c1F (stereo not shown) [Example 86, 5-Bromo-3,4-difluoro-2-(4-iodo-2-methyl-phenylamino)-N-(tetrahydro-pyran-2-yloxy)-benzamide]",0.047 µM
11,"O=C(NO)c1ccc(F)cc1Nc1ccc(I)cc1Cl [Example 87, 2-(2-Chloro-4-iodo-phenylamino)-4-fluoro-N-hydroxy-benzamide (HCl salt)]",< 0.001 µM
12,"O=C(NOC1CCCCO1)c1ccc(F)cc1Nc1ccc(I)cc1Cl (stereo not shown) [Example 88, 2-(2-Chloro-4-iodo-phenylamino)-4-fluoro-N-(tetrahydro-pyran-2-yloxy)-benzamide]",0.069 µM
13,"O=C(NOC1CCCCO1)c1ccc(F)c(F)c1Nc1ccc(I)cc1Cl (stereo not shown) [Example 90, 3,4-Difluoro-2-(2-chloro-4-iodo-phenylamino)-N-(tetrahydro-pyran-2-yloxy)-benzamide]",0.055 µM
14,"CN(C)CCONC(=O)c1cc(Br)c(F)c(F)c1Nc1ccc(I)cc1Cl [Example 91, 5-Bromo-2-(2-chloro-4-iodo-phenylamino)-N-(2-dimethylamino-ethoxy)-3,4-difluoro-benzamide monohydrochloride salt]",0.02 µM
15,"CCN(CC)CCONC(=O)c1cc(Br)c(F)c(F)c1Nc1ccc(I)cc1C [Example 98, 5-Bromo-N-(2-diethylamino-ethoxy)-3,4-difluoro-(4-iodo-2-methyl-phenylamino)-benzamide]",0.025 µM
